Source: ChEMBL document CHEMBL1125280, “Direct prediction of dissociation constants (pKa's) of clonidine-like imidazolines, 2-substituted imidazoles, and 1-methyl-2-substituted-imidazoles from 3D structures using a comparative molecular field analysis (CoMFA) approach” (J Med Chem, 1991)

Experiment: Ionization constant (pKa)
Type: physicochemical

Compound | pKa
Clc1cccc(N=C2NCCN2)c1Cl | 8.55
Cc1ccccc1N=C1NCCN1 | 10.2
c1ccc(-c2ncc[nH]2)cc1 [2-PHENYLIMIDAZOLE] | 6.48
CCc1cccc(CC)c1NC1=NCCN1 | 10.6
Clc1cc(Cl)c(N=C2NCCN2)c(Cl)c1 | 7.75
Clc1ccc(Cl)c(N=C2NCCN2)c1 | 8.5
Cc1cc(Cl)cc(Cl)c1N=C1NCCN1 | 9.03
O=[N+]([O-])c1ncc[nH]1 [AZOMYCIN] | -0.81
Cc1cccc(C)c1N=C1NCCN1 | 10.5
Fc1ncc[nH]1 | 2.4
Cc1cccc(Cl)c1N=C1NCCN1 | 9.4
Brc1ncc[nH]1 | 3.79
CSc1ncc[nH]1 | 5.95
COc1cc(Cl)c(N=C2NCCN2)c(Cl)c1 | 8.57
Clc1cc(Br)cc(Cl)c1N=C1NCCN1 | 7.72
Cc1cc(Cl)ccc1N=C1NCCN1 | 9.99
Clc1ccccc1N=C1NCCN1 | 9.15
Cc1ncc[nH]1 | 7.86
Cc1ccc(NC2=NCCN2)c(Cl)c1 [TOLONIDINE] | 9.41
Cn1ccnc1F | 2.3
c1ccn(-c2ncc[nH]2)c1 | 5.36

Compound | pKa
c1ccc(NC2=NCCN2)cc1 | 10.1
Brc1cc(Br)c(N=C2NCCN2)c(Br)c1 | 7.46
CCc1ncc[nH]1 | 7.73
Clc1cccc(Br)c1N=C1NCCN1 | 7.93
O=[N+]([O-])c1cc(Cl)c(N=C2NCCN2)c(Cl)c1 | 6.86
Fc1cccc(Cl)c1N=C1NCCN1 | 8.01
Cc1cc(C)c(N=C2NCCN2)c(Cl)c1 | 9.59
Cc1cc(Br)cc(C)c1N=C1NCCN1 | 10.2
Clc1ccc(N=C2NCCN2)c(Cl)c1 | 8.73
Brc1cccc(Br)c1N=C1NCCN1 | 7.8
Cc1cc(C)c(N=C2NCCN2)c(C)c1 | 10.8
Cn1ccnc1Br | 3.82
Cc1ccc(N=C2NCCN2)c(C)c1 | 10.6
Cc1cc(Cl)c(N=C2NCCN2)c(Cl)c1 | 8.29
Cn1ccnc1 [1-METHYLIMIDAZOLE] | 7.12
Fc1cccc(F)c1N=C1NCCN1 | 8.18
Clc1ncc[nH]1 | 3.55
Cn1ccnc1N | 8.54
Cc1cc(Cl)cc(C)c1N=C1NCCN1 | 10.2
Cn1ccnc1[N+](=O)[O-] | -0.48
Nc1ncc[nH]1 | 8.46
